Patent publication US4980377A, “1-(aminophenyl)-2-aminopropanone derivatives” (Laboratoire L. Lafon, priority 1984, dated 1990)
Entries after “also recorded” stand apart in the source; their conditions may differ. Where a name gives a salt, the structure may show the parent alone.

Assays:
mice [1] = assay: Asphyxiant anoxia (gallamine triiodoethylate); type: in vivo, mouse; conditions: i.p., curarizing agent
Protocol: Groups of 10 mice receive CRL 41 153 half an hour before the intraperitoneal administration of 32 mg/kg of gallamine triiodoethylate (reference curarizing agent).

mice [2] = assay: Motility reduced by hypoxic aggression; type: in vivo, mouse; conditions: i.p.
Protocol: Half an hour after they have received CRL 41 153, the mice (10 per dose, 20 control animals) are subjected to acute hypobaric anoxia [pressure reduction of 600 mm Hg (i.e. about 8×10^4 Pa) in 90 seconds; release of vacuum in 45 seconds] and are then placed in an actimeter, where their motility is recorded for 10 minutes.

mice [3] = assay: Spontaneous motility; type: in vivo, mouse; conditions: i.p.
Protocol: 0.5 hour after they have received CRL 41 153, the mice (6 per dose, 12 control animals) are placed in an actimeter, where their motility is recorded for 30 minutes.

[4] = pH of solutions in distilled water; type: physicochemical; conditions: administered solution in distilled water, concentration not given
Protocol: The neuropsychopharmacological study was undertaken according to the procedures described above for CRL 41 153, CRL 41 213 being adminstered intraperitoneally, in solution in distilled water, in a volume of 20 ml/kg to male mice and a volume of 5 ml/kg to male rats, and the pH of the injected solution varying with the concentration of CRL 41 213 according to the data given in Table II below.

CNS [5] = assay: Neuropsychopharmacological profile as a whole; type: in vivo, mice and rats
Protocol: (§1) In the neuropsychopharmacological study which follows, a solution of CRL 41 153 in distilled water (pH 1.5) was administered intraperitoneally in a volume of 20 ml/kg to male mice and 5 ml/kg to male rats.

rats [6] = assay: Overall behavior and reactivities in rats; type: in vivo, rat; conditions: i.p.
Protocol: as §1
Groups of three animals are observed before and then 0.25 hour, 0.50 hour, 1 hour, 2 hours, 3 hours and 24 hours after the administration of CRL 41 153.

mice [7] = assay: Interaction with apomorphine in mice; type: in vivo, mouse; conditions: i.p.
Protocol: Groups of 6 mice receive CRL 41 153 0.5 hour before the subcutaneous injection of 1 or 16 mg/kg of apomorphine.

mice [8] = assay: Intergroup aggressiveness; type: in vivo, mouse; conditions: i.p.
Protocol: After they have stayed for 3 weeks in the two halves of a cage divided by an opaque partition, groups of 3 mice receive CRL 41 153. Half an hour later, the two groups from the same cage are brought together by removal of the partition, and the number of fights which occur in 10 minutes is noted.

CNS [9] = assay: Complementary tests by oral (gastric) administration; type: in vivo
rats [10] = assay: Interaction with apomorphine in rats; type: in vivo, rat; conditions: i.p.
Protocol: CRL 41 153 is administered to groups of 6 rats 0.5 hour before the subcutaneous injection of 0.5 mg/kg of apomorphine.

mice [11] = assay: Behavioral despair; type: in vivo, mouse; conditions: forcibly immersed mice, i.p.
Excerpt: Half an hour after they have received CRL 41 153, groups of 6 mice are placed in a beaker filled with water to a height of 6 cm. The total period of immobility between the 2nd and 6th minutes following immersion is noted.

mice [12] = assay: Motility reduced by habituation to the enclosure; type: in vivo, mouse; conditions: i.p.
Protocol: After they have stayed In the actimeters for 18 hours, (he mice (6 per dose, 12 control animals) receive CRL 41 153. They are immediately returned to their respective enclosures and, half an hour later, their motility is recorded for 30 minutes.

mice [13] = assay: Interaction with barbital; type: in vivo, mouse; conditions: i.p., barbital 220 mg/kg
Protocol: Half an hour after the administration of CRL 41 153, groups of 10 mice receive an intraperitoneal injection of barbital (220 mg/kg).

mice [14] = assay: Four plate test, traction and electric shock; type: in vivo, mouse; conditions: i.p.
Protocol: The test is performed on groups of 10 mice 30 minutes after the administration of CRL 41 153.

mice [15] = assay: Interaction with oxotremorine; type: in vivo, mouse; conditions: i.p.
Protocol: CRL 41 153 is administered to groups of 6 mice 0.5 hour before the intraperitoneal injection of 0.5 mg/kg of oxotremorine.

[16] = test system: nigrostriatal dopaminergic system; assay: Interaction with alpha-methyltyrosine on stereotypies (difference from amphetamine); conditions: α-methyltyrosine (catecholamine synthesis blocked)
rats [17] = assay: Interaction with amphetamine; type: in vivo, rat; conditions: i.p.
Protocol: Amphetamine (2 mg/kg) is injected intraperitoneally into groups of 6 rats 30 minutes after the administration of CRL 41 153. […] 4 mg/kg and 16 mg/kg, CRL 41 153 potentiates the intensity and duration of the stereotypies induced by amphetamine.

male mice = assay: Acute toxicity by intraperitoneal administration; type: in vivo, mouse; conditions: i.p.
Protocol: as §1

In the case of `CC(C)NC(C)C(=O)c1ccc(N)cc1` (stereo not drawn) [CRL 41 153, 1-(4-aminophenyl)-2-isopropylaminopropanone dihydrochloride], the “Time taken for convulsions to occur” value (mice [1]) is reported as “at a dose of 32 mg/kg, CRL 41 153 reduces the time taken for convulsions to occur”, the “Time taken for death to occur” value (mice [1]) is reported as “does not change the time taken for death to occur” and the “Motor recovery of mice after hypobaric hypoxia” value (mice [2]) is reported as “as from a dose of 0.5 mg/kg, CRL 41 153 causes a distinct improvement in the motor recovery”. For the same compound, the Spontaneous motor activity (mice [3]) was “increases the spontaneous motor activity of mice”, the pH [4] was 1.5 and the “Anticonvulsant effects (overall)” value (CNS [5]; conclusion of the tests) was “anticonvulsant effects: at a high dose”. For the same compound, the “Antidepressant effects (overall)” value (CNS [5]; conclusion of the tests) was “behaves as an antidepressant for the CNS”, the “Stimulant effects (overall)” value (CNS [5]; conclusion of the tests) was “distinct stimulant component” and the “α-adrenergic stimulant effects (overall)” value (CNS [5]; conclusion of the tests) was “peripheral α-adrenergic stimulant effects”. For the same compound, the “Peripheral α-adrenergic signs (mydriasis, salivation, lacrimation, exophthalmos)” value (CNS [5]; species and dose not stated) was “mydriasis (with neither piloerection nor salivation)”, the Observed symptoms (rats [6]; 0.25 mg/kg) was “no particular symptoms” and the Observed symptoms (rats [6]; 1 mg/kg) was “mydriasis for 1 hour, reaching its maximum value 1 hour after administration”. The “Hyperthermia (maximum temperature change)” value (rats [6]; 4 mg/kg, 0.5 hour after administration) was “+1.9 °C”, the Observed symptoms (rats [6]; 4 mg/kg, dihydrochloride) was “excitation 0.5 hour after administration and stereotypies for 2 hours; also recorded: hyperthermia for 3 hours; also recorded: mydriasis for 2 hours, reaching its maximum value 0.5 hour after administration” and the Observed symptoms (rats [6]; 16 mg/kg, dihydrochloride) was “excitation 0.5 hour after administration; also recorded: stereotypies for 3 hours; also recorded: an increase in the fear reaction for 3 hours; also recorded: mydriasis for 3 hours, at a maximum 0.5 hour after administration”. For the same compound, the “Effect on hypothermia induced by apomorphine” value (mice [7]) was “at doses of 2 mg/kg, 8 mg/kg and 32 mg/kg, CRL 41 153 (which is hyperthermic at the said doses) opposes the hypothermia induced by apomorphine”, the “Effect on righting behavior and stereotypies induced by apomorphine” value (mice [7]) was “without modifying the righting behavior and stereotypy behavior” and the “Number of fights / intergroup aggressiveness” value (mice [8]) was “at a dose of 8 mg/kg, CRL 41 153 reduces the number of fights”. For the same compound, the “Hypothermia induced by apomorphine” value (CNS [9]; gastric) was “antagonism of the hypothermia induced by apomorphine”, the Motility (CNS [9]; gastric) was “hypermotility” and the “Sleep induced by barbital” value (CNS [9]; gastric) was “reduction in the sleep induced by barbital”. The “Action on gastric (oral) administration compared with intraperitoneal” value (CNS [9]; gastric vs i.p., dihydrochloride) was “very active substance; also recorded: same types of action on gastric administration as after intraperitoneal administration”, the minimal effective dose (CNS [9]; po, gastric, read-out: Dose as from which antidepressant and stimulant and/or arousing effects appear) was ≥ 4 mg/kg and the “Effect on stereotypies induced by apomorphine” value (rats [10]) was “as from a dose of 0.5 mg/kg, CRL 41 153 potentiates the stereotypies induced by apomorphine”. For the same compound, the “Period of immobility due to despair” value (mice [11]) was “at doses greater than or equal to 0.5 mg/kg, CRL 41 153 reduces the period of immobility”, the “Motor activity of mice accustomed to their enclosure” value (mice [12]) was “causes a distinct resumption in the motor activity of mice accustomed to their enclosure” and the “Duration of the sleep induced by barbital” value (mice [13]) was “reduces the duration of the sleep induced by barbital (total antagonism is obtained at doses of 8 mg/kg and 32 mg/kg)”. For the same compound, the “Time taken to fall asleep (barbital)” value (mice [13]) was “at doses of 0.5 to 32 mg/kg, CRL 41 153 increases the time taken to fall asleep”, the “Effect on convulsant effects of electric shock” value (mice [14]) was “at high doses, CRL 41 153 antagonizes the convulsant effects of electric shock” and the “Effect on hypothermic action of oxotremorine” value (mice [15]) was “at doses of 2 mg/kg, 8 mg/kg and 32 mg/kg, CRL 41 153 opposes the hypothermic action of oxotremorine”. The “Effect on trembling induced by oxotremorine” value (mice [15]) was “at doses of 8 mg/kg and 32 mg/kg, CRL 41 153 partially antagonizes the trembling induced by oxotremorine”, the “Action on the peripheral cholinergic symptoms” value (mice [15]; oxotremorine) was “moderate α-adrenergic stimulant effect” and the “Effect of alpha-methyltyrosine on the stereotypies induced by the substance” value [16] was “only reduces them”. For the same compound, the “Effect on stereotypies induced by amphetamine” value (rats [17]) was “at doses of 1 mg/kg. 4 mg/kg and 16 mg/kg, CRL 41 153 potentiates the intensity and duration of the stereotypies induced by amphetamine”, the “LD0 (maximum non-lethal dose)” value (male mice) was “greater than 64 mg/kg” and the LD60 (male mice) was “about 128 mg/kg”.
